US20140315883A1, “6H-IMIDAZO[1,5-a]PYRROLO[2,3-e]PYRAZINE COMPOUNDS” (ABBVIE INC., priority 2013, published 2014)

Test system: not given
Experiment: not given
Settings: patients in clinical trials; cited from earlier work

Compound | risk for hypertension
CCN(CC)CCNC(=O)c1c(C)[nH]c(/C=C2\C(=O)Nc3ccc(F)cc32)c1C [sunitibnib, sunitinib] | increased risk for hypertension

Molecular target: T1, Syk (Homo sapiens, UniProt P43405)
T1 construct: Purified Syk catalytic domain (aa 356-635 with a C-terminal His-tag purified in-house); His-tag (C); made in house
Experiment: In vitro Syk kinase activity measured by trFRET
Type: biochemical
Settings: Syk catalytic domain, 0.001 mM ATP
Protocol: In Vitro Syk Kinase Activity Measured by Time-Resolved Fluorescence Resonance Energy Transfer (trFRET)
After about 60 min incubation at rt, the reaction was quenched by addition of EDTA (final concentration: 100 mM) and developed by addition of revelation reagents (final approximate concentrations: 30 mM HEPES pH 7.0, 0.06% BSA, 0.006% Tween-20, 0.24 M KF, 80 ng/mL PT66K (europium labeled anti-phosphotyrosine antibody cat #61T66KLB Cisbio, Bedford, Mass.) and 0.6 μg/mL SAXL (Phycolink streptavidin-allophycocyanin acceptor, cat #PJ25S, Prozyme, San Leandro, Calif.). The developed reaction was incubated in the dark either at about 4° C. for about 14 h or for about 60 min at rt, then read via a time-resolved fluorescence detector (Rubystar, BMG) using a 337 nm laser for excitation and monitoring emission wavelengths at 665 nm. Within the linear range of the assay, the observed signal at 665 nm was directly related to phosphorylated product and can be used to calculate the IC50 values.

Compound | IC50 [nM]
CNc1ccc(-c2nc([C@H]3C[C@@H](O)CN3C(C)=O)n3c2cnc2[nH]ccc23)cc1 [Example #1, 1-((2R,4R)-4-Hydroxy-2-(3-(4-(methylamino)phenyl)-6H-imidazo[1,5-a]pyrrolo[2,3-e]pyrazin-1-yl)pyrrolidin-1-yl)ethanone] | 10 to 30
CC(=O)N1C[C@H](O)C[C@@H]1c1nc(-c2ccc(NC(C)C)cc2)c2cnc3[nH]ccc3n12 [Example #10, 1-((2R,4R)-4-Hydroxy-2-(3-(4-(isopropylamino)phenyl)-6H-imidazo[1,5-a]pyrrolo[2,3-e]pyrazin-1-yl)pyrrolidin-1-yl)ethanone] | 10 to 30
(2R,4R)-2-(3-(chroman-6-yl)-6H-imidazo[1,5-a]pyrrolo[2,3-e]pyrazin-1-yl)-4-hydroxypyrrolidine-1-carboxamide [Example #6] | 10 to 30
COCCOc1ccc(-c2nc([C@H]3C[C@@H](O)CN3C(=O)CF)n3c2cnc2[nH]ccc23)cc1 [E.1.2, 2-fluoro-1-((2R,4R)-4-hydroxy-2-(3-(4-(2-methoxyethoxy)phenyl)-6H-imidazo[1,5-a]pyrrolo[2,3-e]pyrazin-1-yl)pyrrolidin-1-yl)ethanone] | 10 to 30
CC(=O)N1C[C@H](O)C[C@@H]1c1nc(-c2csc(CO)c2)c2cnc3[nH]ccc3n12 [D.1.2, 1-((2R,4R)-4-hydroxy-2-(3-(5-(hydroxymethyl)thiophen-3-yl)-6H-imidazo[1,5-a]pyrrolo[2,3-e]pyrazin-1-yl)pyrrolidin-1-yl)ethanone] | 10 to 30
CC(=O)N1C[C@H](O)C[C@@H]1c1nc(-c2ccc(C3(C)COC3)cc2)c2cnc3[nH]ccc3n12 [A.1.6] | < 10
CC(=O)N1C[C@H](O)C[C@@H]1c1nc(-c2ccc(N3CCO[C@@H](C)C3)cc2)c2cnc3[nH]ccc3n12 [Example #5 (S), 1-((2R,4R)-4-Hydroxy-2-(3-(4-((S)-2-methylmorpholino)phenyl)-6H-imidazo[1,5-a]pyrrolo[2,3-e]pyrazin-1-yl)pyrrolidin-1-yl)ethanone] | < 10
COc1ccc(-c2nc([C@H]3C[C@@H](O)CN3C(C)=O)n3c2cnc2[nH]ccc23)s1 [Example #3, 1-((2R,4R)-4-Hydroxy-2-(3-(5-methoxythiophen-2-yl)-6H-imidazo[1,5-a]pyrrolo[2,3-e]pyrazin-1-yl)pyrrolidin-1-yl)ethanone] | 10 to 30
CC(=O)N1C[C@H](O)C[C@@H]1c1nc(-c2ccc(Cn3nccn3)cc2)c2cnc3[nH]ccc3n12 [Example #8, 1-((2R,4R)-2-(3-(4-((2H-1,2,3-Triazol-2-yl)methyl)phenyl)-6H-imidazo[1,5-a]pyrrolo[2,3-e]pyrazin-1-yl)-4-hydroxypyrrolidin-1-yl)ethanone] | 30 to 100
CCOc1ccc(-c2nc([C@H]3C[C@@H](O)CN3C(C)=O)n3c2cnc2[nH]ccc23)cc1 [A.1.2, 1-((2R,4R)-2-(3-(4-ethoxyphenyl)-6H-imidazo[1,5-a]pyrrolo[2,3-e]pyrazin-1-yl)-4-hydroxypyrrolidin-1-yl)ethanone] | 10 to 30

Second part, the compound after the results:

IC50 [nM] | Compound
> 100 | CC(=O)N1C[C@H](O)C[C@@H]1c1nc(-c2ccc(C(=O)N3CCC(F)(F)CC3)cc2)c2cnc3[nH]ccc3n12 [F.1.1, 1-((2R,4R)-2-(3-(4-(4,4-difluoropiperidine-1-carbonyl)phenyl)-6H-imidazo[1,5-a]pyrrolo[2,3-e]pyrazin-1-yl)-4-hydroxypyrrolidin-1-yl)ethanone]
30 to 100 | CC(=O)N1C[C@H](O)C[C@@H]1c1nc(-c2ccc3c(c2)OCCO3)c2cnc3[nH]ccc3n12 [F.1.6, 1-((2R,4R)-2-(3-(2,3-dihydrobenzo[b][1,4]dioxin-6-yl)-6H-imidazo[1,5-a]pyrrolo[2,3-e]pyrazin-1-yl)-4-hydroxypyrrolidin-1-yl)ethanone]
30 to 100 | COc1ccc(-c2nc([C@H]3C[C@@H](O)CN3C(C)=O)n3c2cnc2[nH]cc(C)c23)cc1 [F.1.14]
< 10 | COc1ccc(-c2nc([C@H]3C[C@@H](O)CN3C(C)=O)n3c2cnc2[nH]ccc23)cc1OC [F.1.20, 1-((2R,4R)-2-(3-(3,4-dimethoxyphenyl)-6H-imidazo[1,5-a]pyrrolo[2,3-e]pyrazin-1-yl)-4-hydroxypyrrolidin-1-yl)ethanone]
10 to 30 | CC(=O)N1C[C@H](O)C[C@@H]1c1nc(-c2ccc(OCCN3CCOCC3)cc2)c2cnc3[nH]ccc3n12 [F.1.12, 1-((2R,4R)-4-hydroxy-2-(3-(4-(2-morpholinoethoxy)phenyl)-6H-imidazo[1,5-a]pyrrolo[2,3-e]pyrazin-1-yl)pyrrolidin-1-yl)ethanone]
10 to 30 | CCNc1ccc(-c2nc([C@H]3C[C@@H](O)CN3C(C)=O)n3c2cnc2[nH]ccc23)cc1 [Example #F.1, 1-((2R,4R)-2-(3-(4-(ethylamino)phenyl)-6H-imidazo[1,5-a]pyrrolo[2,3-e]pyrazin-1-yl)-4-hydroxypyrrolidin-1-yl)ethanone]
10 to 30 | CC(=O)N1C[C@H](O)C[C@@H]1c1nc(-c2ccc(OC(C)C)cc2)c2cnc3[nH]ccc3n12 [F.1.23, 1-((2R,4R)-4-hydroxy-2-(3-(4-isopropoxyphenyl)-6H-imidazo[1,5-a]pyrrolo[2,3-e]pyrazin-1-yl)pyrrolidin-1-yl)ethanone]
< 10 | CC(=O)N1C[C@H](O)C[C@@H]1c1nc(-c2ccc(N3CCOC(C)C3)cc2)c2cnc3[nH]ccc3n12 (stereo partly drawn) [F.1.7, 1-((2R,4R)-4-hydroxy-2-(3-(4-(2-methylmorpholino)phenyl)-6H-imidazo[1,5-a]pyrrolo[2,3-e]pyrazin-1-yl)pyrrolidin-1-yl)ethanone]
< 10 | CC(=O)N1C[C@H](O)C[C@@H]1c1nc(-c2ccc(N3CCOCC3)cc2)c2cnc3[nH]ccc3n12 [F.1.17, 1-((2R,4R)-4-hydroxy-2-(3-(4-morpholinophenyl)-6H-imidazo[1,5-a]pyrrolo[2,3-e]pyrazin-1-yl)pyrrolidin-1-yl)ethanone]
30 to 100 | COc1ccc(-c2nc([C@H]3C[C@@H](O)CN3C(C)=O)n3c2cnc2[nH]ccc23)cc1F [F.1.26, 1-((2R,4R)-2-(3-(3-fluoro-4-methoxyphenyl)-6H-imidazo[1,5-a]pyrrolo[2,3-e]pyrazin-1-yl)-4-hydroxypyrrolidin-1-yl)ethanone]
10 to 30 | CC(=O)N1C[C@H](O)C[C@@H]1c1nc(-c2ccc3c(c2)CCCO3)c2cnc3[nH]ccc3n12 [F.1.19, 1-((2R,4R)-2-(3-(chroman-6-yl)-6H-imidazo[1,5-a]pyrrolo[2,3-e]pyrazin-1-yl)-4-hydroxypyrrolidin-1-yl)ethanone]
10 to 30 | COc1ccc(-c2nc([C@H]3C[C@@H](O)CN3C(C)=O)n3c2cnc2[nH]ccc23)cc1 [Example #F.1.4, 1-((2R,4R)-4-hydroxy-2-(3-(4-methoxyphenyl)-6H-imidazo[1,5-a]pyrrolo[2,3-e]pyrazin-1-yl)pyrrolidin-1-yl)ethanone]
10 to 30 | CC(=O)N1C[C@H](O)C[C@@H]1c1nc(-c2ccc3c(c2)NCCC3)c2cnc3[nH]ccc3n12 [F.1.30, 1-((2R,4R)-4-hydroxy-2-(3-(1,2,3,4-tetrahydroquinolin-7-yl)-6H-imidazo[1,5-a]pyrrolo[2,3-e]pyrazin-1-yl)pyrrolidin-1-yl)ethanone]
< 10 | CC(=O)N1C[C@H](O)C[C@@H]1c1nc(-c2ccc(C3CCOCC3)cc2)c2cnc3[nH]ccc3n12 [F.1.18, 1-((2R,4R)-4-hydroxy-2-(3-(4-(tetrahydro-2H-pyran-4-yl)phenyl)-6H-imidazo[1,5-a]pyrrolo[2,3-e]pyrazin-1-yl)pyrrolidin-1-yl)ethanone]
